Columns and labels:
Mycobacteria smegmatis = assay: Antimicrobial spectrum, liquid media, viable cell count; type: cell-based, Mycobacterium smegmatis; conditions: saturating concentrations
Method: (§1) Saturated solutions of TA and Focusin were prepared by adding 1.14 μg TA and 7 μg Focusin to 1 ml LB (final conc. of 1% ethanol). About 10^5 bacteria of various strains were then added. The control was bacteria in the same medium with no antibacterial agents. The bacteria were introduced at 37° C. with shaking at 100 rpm. When the control became turbid, viable cell count was performed on LB agar plates. Growth inhibition is presented as percentage of the no antibiotic control.

E. coli ESS [1] = assay: Bactericidal effect when bound to mouse tissues; type: cell-based, Escherichia coli; conditions: 4 μg TA or 20 μg Focusin, 5 h
Method: Two mice were sacrificed by exposure to ether. The bladder, eyes, intestines, lungs, heart, teeth, liver, spleen and kidneys were removed by dissection. Each experimental set consisted of three test tubes. A piece of each tissue type was placed in each of the three test tubes. The amount of tissue per tube were as follows: bladder 1/3, eye 1/2, intestine 1 cm, lung 1/2, heart 1/3, fang tooth 1/2, liver 1/3, spleen 1/3 and kidney 1/2. One test tube contained a control tissue which was treated only with the solvent used for dissolving the antibacterial agent, usually 50% ethanol. The second and third test tubes contained tissues were treated with 4 μg TA or 20 μg Focusin, respectively.
Following application of the antibacterial agent or the control solution, the tissues were allowed to dry in a hood for 30 mins., and then placed in the test tubes.
One milliliter of sterile saline was then added to each test tube and the tubes were then incubated with shaking (50 rpm) at 37° C. for one hour. The amount of antibacterial agent that was released to the saline was measured following chloroform extraction by the disc filter assay.
The tissues were then transferred to exponentially growing cultures of E. coli ESS in NB at a concentration of 10^5 cells/ml. Incubation was at 37° C. and continued for 5 hours, following which the number of viable cells was checked.

E. coli ESS Kan^r [2] = assay: Paper disc filter antibiotic assay (zone of inhibition); type: cell-based, Escherichia coli; conditions: paper disc
Method: Escherichia coli ESS Kan^r, is a kanamycin resistant strain of E. coli ESS, derived by transducing E. coli ESS with P1:TnV, Kan^r. This strain was used for the standard antibiotic assays.
LB Kan medium was solidified by 1.5% Bacto agar (Difco). For the antibiotic assay, Nutrient Broth agar plates were used. NB medium is 0.8% Nutrient Broth (Difco) containing 0.5% NaCl (Merck). NB was solidified by 1.8% Bacto agar (Difco). The NB plates were overlaid by 3.5 ml NB soft agar (0.9% Bacto agar) mixed with 0.1 ml E. coli ESS Kan^r overnight culture.
(§2) Antibiotic activity against E. coli ESS Kan^r was determined by the paper disc filter assay (Leo et al., 1945). Unknown quantities of antibiotic TA or Focusin, dissolved in ethanol, saline or NB were applied to paper disc filters (6 mm diameter; Schleicher and Schull). After allowing the ethanol to evaporate in the hood for about 15 mins, the dry filters were placed on nutrient broth plates which had been overlaid with an overnight culture of E. coli ESS Kan^r as described above.
(§3) The diameter of the zone of inhibition was recorded after 18 hours in incubation at 37° C. The concentration of the antibacterial agents were determined from a standard inhibition curve prepared with known quantities of TA and Focusin.

Staphylococcus aureas = assay: Antimicrobial spectrum, liquid media, viable cell count; type: cell-based, Staphylococcus aureus; conditions: saturating concentrations
Method: as §1

[3] = test system: Gram-positive and Gram-negative bacteria; conditions: literature; cited from earlier work
E. coli ESS Kan^r [4] = assay: Sensitivity to combined exposure to light and air (remaining activity by paper disc bioassay); type: physicochemical, Escherichia coli
Method: as §2, §3
100 ng of TA and Focusin dissolved in ethanol were applied to paper filters and allowed to dry in a hood for 15 mins. The filters were then exposed to light from a fluorescent lamp in the hood; the distance from the lamp to the filters was approximately 40 cm. The controls were placed in the dark under a plastic box within the hood.
After exposure of the filters to the light for varying periods of time, the remaining activity of the agents was measured by the paper disc bioassay and the results are shown in the following Table 1: […]

[5] = test system: severe gingivitis and plaque; conditions: humans; cited from earlier work
[6] = type: physicochemical
Method: Focusin and TA at concentrations of 3 mg/ml were diluted either in ethanol or in saline containing 1% ethanol to yield a final concentration in each case of 30 μg/ml. The solutions were mixed at 37° C. for one hour under shaking, and then were centrifuged at 5000 g for 10 minutes. Several samples were taken from the supernatants of the tubes and were applied on disc filters in order to determine the concentration of the antibacterial agents in the saline and ethanol solutions, by the paper disc bioassay method.

Erwinia herbicola = assay: Antimicrobial spectrum, liquid media, viable cell count; type: cell-based; conditions: saturating concentrations
Method: as §1

Enterobacter = assay: as above; type: cell-based; conditions: saturating concentrations
Method: as §1

Serratia marcescens = assay: as above; type: cell-based; conditions: saturating concentrations
Method: as §1

Proteus vulgaris = assay: as above; type: cell-based; conditions: saturating concentrations
Method: as §1

Klebsiella sp = assay: as above; type: cell-based; conditions: saturating concentrations; hospital strain
Method: as §1

Bacillus subtilis = assay: as above; type: cell-based; conditions: saturating concentrations
Method: as §1

Klebsiella pneumoniae = assay: as above; type: cell-based; conditions: saturating concentrations; hospital strain
Method: as §1

Helicobacter pilori = assay: as above; type: cell-based; conditions: saturating concentrations
Method: as §1

Klebsiella Gr47 = assay: as above; type: cell-based; conditions: saturating concentrations; hospital strain
Method: as §1

Citrobacter diversus = assay: as above; type: cell-based; conditions: saturating concentrations
Method: as §1

Staphylococcus albus = assay: as above; type: cell-based
Method: as §1

Providencia strautii = assay: as above; type: cell-based; conditions: saturating concentrations
Method: as §1

Salmonella thyphimurium = assay: as above; type: cell-based; conditions: saturating concentrations
Method: as §1

Pseudomonas aeruginosa = assay: as above; type: cell-based; conditions: saturating concentrations
Method: as §1

E. coli ESS [7] = assay: as above; type: cell-based, Escherichia coli; conditions: saturating concentrations
Method: as §1

E. coli K-12 = assay: as above; type: cell-based, Escherichia coli; conditions: saturating concentrations
Method: as §1

SMILES: CCCC1OC(=O)C(C)CC(C)CCCCC(=O)CCCC(CC)C=CC=C(COC)CCC(O)C(O)CC(O)CNC1=O (stereo not drawn) [TA, reference compound]
- killing (Mycobacteria smegmatis): 0%
- Inhibition % by the treated tissue (E. coli ESS [1]; bladder): 100%
- Inhibition % by the treated tissue (E. coli ESS [1]; heart): 100%
- Inhibition % by the treated tissue (E. coli ESS [1]; intestine): 99%
- Inhibition % by the treated tissue (E. coli ESS [1]; kidney): 100%
- Inhibition % by the treated tissue (E. coli ESS [1]; liver): 96%
- Inhibition % by the treated tissue (E. coli ESS [1]; lungs): 100%
- Inhibition % by the treated tissue (E. coli ESS [1]; spleen): 100%
- Inhibition % by the treated tissue (E. coli ESS [1]; teeth): 100%
- amount giving an inhibition zone of 11 mm (E. coli ESS Kan^r [2]; zone 11 mm): 64 ng
- amount required to obtain a zone of inhibition of about 2 mm (E. coli ESS Kan^r [2]; zone about 2 mm): 7.5 ng
- killing (Staphylococcus aureas): 100%
- growth inhibition (in words) [3]: capable of inhibiting growth of a variety of Gram-positive and Gram-negative bacteria
- mode of growth inhibition (in words) [3]: lysis of growing bacteria as a result of blocking of cell wall synthesis
- activity after exposure to light and air (E. coli ESS Kan^r [4]; 0 hours): 100%
- activity after exposure to light and air (E. coli ESS Kan^r [4]; 1 hour): 70%
- activity after exposure to light and air (E. coli ESS Kan^r [4]; 4 hours): 63%
- activity after exposure to light and air (E. coli ESS Kan^r [4]; 6 hours): 26%
- activity after exposure to light and air (E. coli ESS Kan^r [4]; 8 hours): 21%
- activity after exposure to light and air (E. coli ESS Kan^r [4]; 20 hours): 19%
- degradation at combined exposure to light and air (E. coli ESS Kan^r [4]; after 20 hours): 81%
- degradation at combined exposure to light and air (E. coli ESS Kan^r [4]; after one hour, 60 min): 30%
- effect on gingivitis and plaque (in words) [5]: to treat severe gingivitis and to reduce plaque in humans
- solubility in ethanol [6]: completely soluble
- solubility in saline ([6]; saline with 1% ethanol, 1 h): about 1.14 μg/ml
- killing (Erwinia herbicola): 100%
- killing (Enterobacter): 100%
- killing (Serratia marcescens): 100%
- killing (Proteus vulgaris): 100%
- killing (Klebsiella sp): 100%
- killing (Bacillus subtilis): 100%
- killing (Klebsiella pneumoniae): 100%
- killing (Helicobacter pilori): 100%
- killing (Klebsiella Gr47): 100%
- killing (Citrobacter diversus): 100%
- incubation time after which the strain began to show sensitivity (Staphylococcus albus; saturating concentrations): > 46 h
- killing (Staphylococcus albus; saturating concentrations (TA)): 83%
- killing (Providencia strautii): 100%
- killing (Salmonella thyphimurium): 60%
- killing (Pseudomonas aeruginosa): 0%
- killing (E. coli ESS [7]): 100%
- killing (E. coli K-12): 100%
